# Data published in US9833497B2, “Human originated EGF domain proteins and use of the same” (CHENGDU SOURCEBIO LIMITED-LIABILITY COMPANY, priority 2013, dated 2017).
# Tests used:
# Type in all cases: cell-based
# E. coli DH5α = assay: Antibacterial activity: MIC and growth curve against E. coli DH5α in 96-well plate; conditions: minimal inhibitory concentration against E. coli DH5α; 96-well plate, 5×10^5 CFU/mL, 37° C., judged after 8 h
# Method in brief: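 MIC taken as lowest protein level with no bacterial growth, tracked by A600 every 30 min during 37 °C, 175 rpm culture. Two-fold protein series 50-12.5 μg/mL final, triplicate wells, against 5×10^5 CFU/mL of LB-washed mid-log cells.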
# E. coli BL21 = assay: MIC against Gram-negative bacteria: E. coli BL21; conditions: 5×10^5 CFU/mL
# Method in brief: (§1)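 Bacteria grown in LB at 37° C with shaking to McFarland 0.5, pelleted and resuspended in fresh LB, then seeded at 5×10^5 CFU/mL per well. Purified recombinant human EGF domain proteins were two-fold serially diluted in triplicate and plates shaken at 37° C, 175 rpm. MIC is the lowest protein concentration with no bacterial growth.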
# Pseudomonas aeruginosa = assay: MIC against Gram-negative bacteria: Pseudomonas aeruginosa; conditions: 5×10^5 CFU/mL
# Method in brief: as §1
# Klebsiella pneumonia = assay: MIC against Gram-negative bacteria: Klebsiella pneumonia; conditions: 5×10^5 CFU/mL
# Method in brief: as §1
# Enterobacter cloacae = assay: MIC against Gram-negative bacteria: Enterobacter cloacae; conditions: 5×10^5 CFU/mL
# Method in brief: as §1
# Aeromonas hydrophila = assay: MIC against Gram-negative bacteria: Aeromonas hydrophila; conditions: 5×10^5 CFU/mL
# Method in brief: as §1
# Citrobacter diversus = assay: MIC against Gram-negative bacteria: Citrobacter diversus; conditions: 5×10^5 CFU/mL
# Method in brief: as §1
# Moraxella catarrhalis = assay: MIC against Gram-negative bacteria: Moraxella catarrhalis; conditions: 5×10^5 CFU/mL
# Method in brief: as §1
# Proteus mirabilis = assay: MIC against Gram-negative bacteria: Proteus mirabilis; conditions: 5×10^5 CFU/mL
# Method in brief: as §1
# Proteus vulgaris = assay: MIC against Gram-negative bacteria: Proteus vulgaris; conditions: 5×10^5 CFU/mL
# Method in brief: as §1
# Serratia marcescens = assay: MIC against Gram-negative bacteria: Serratia marcescens; conditions: 5×10^5 CFU/mL
# Method in brief: as §1
# [1] = Pseudomonas aeruginosa, 96-well plate, 37° C., 10 h
# [2] = Klebsiella pneumonia, 96-well plate, 37° C., 10 h
# [3] = Enterobacter cloacae, 96-well plate, 37° C., 10 h
# [4] = Aeromonas hydrophila, 96-well plate, 37° C., 10 h
# [5] = Citrobacter diversus, 96-well plate, 37° C., 10 h
# [6] = Moraxella catarrhalis, 96-well plate, 37° C., 10 h
# [7] = Proteus mirabilis, 96-well plate, 37° C., 10 h
# [8] = Proteus vulgaris, 96-well plate, 37° C., 10 h
# [9] = Serratia marcescens, 96-well plate, 37° C., 10 h
Substance,MIC (E. coli DH5α) [µg/mL],"MIC E. coli BL21 (E. coli BL21; 96-well plate, 37° C., 10 h) [µg/mL]","MIC P. aeruginosa (Pseudomonas aeruginosa; 96-well plate, 37° C., 10 h) [µg/mL]","MIC K. pneumonia (Klebsiella pneumonia; 96-well plate, 37° C., 10 h) [µg/mL]","MIC E. cloacae (Enterobacter cloacae; 96-well plate, 37° C., 10 h) [µg/mL]","MIC A. hydrophila (Aeromonas hydrophila; 96-well plate, 37° C., 10 h) [µg/mL]","MIC C. diversus (Citrobacter diversus; 96-well plate, 37° C., 10 h) [µg/mL]","MIC M. catarrhalis (Moraxella catarrhalis; 96-well plate, 37° C., 10 h) [µg/mL]","MIC P. mirabilis (Proteus mirabilis; 96-well plate, 37° C., 10 h) [µg/mL]","MIC P. vulgaris (Proteus vulgaris; 96-well plate, 37° C., 10 h) [µg/mL]","MIC S. marcescens (Serratia marcescens; 96-well plate, 37° C., 10 h) [µg/mL]","MIC against E. coli BL21 (E. coli BL21; 96-well plate, 37° C., 10 h) [µg/mL]",MIC against P. aeruginosa (Pseudomonas aeruginosa; [1]) [µg/mL],MIC against K. pneumonia (Klebsiella pneumonia; [2]) [µg/mL],MIC against E. cloacae (Enterobacter cloacae; [3]) [µg/mL],MIC against A. hydrophila (Aeromonas hydrophila; [4]) [µg/mL],MIC against C. diversus (Citrobacter diversus; [5]) [µg/mL],MIC against M. catarrhalis (Moraxella catarrhalis; [6]) [µg/mL],MIC against P. mirabilis (Proteus mirabilis; [7]) [µg/mL],MIC against P. vulgaris (Proteus vulgaris; [8]) [µg/mL],further results
PRT735 (GEENCNVNNGGCAQKCQMVRGAVQCTCHTGYRLTEDGHTCQ; listed as Homo sapiens),12.5,50,12.5,25,12.5,25,50,25,12.5,50,25,–,–,–,–,–,–,–,–,–,–
PRT80 (TNVCDLNPCEHQSVCTRKPSAPHGYTCECPPNYLGPYCE; listed as Homo sapiens),12.5,–,–,–,–,–,–,–,–,–,–,–,–,–,–,–,–,–,–,–,"MIC (μg/mL) E. coli BL21 (E. coli BL21; 96-well plate, 37° C., 10 h): 50 µg/mL; MIC (μg/mL) P. aeruginosa (Pseudomonas aeruginosa; [1]): 12.5 µg/mL; MIC (μg/mL) K. pneumonia (Klebsiella pneumonia; [2]): 25 µg/mL; MIC (μg/mL) E. cloacae (Enterobacter cloacae; [3]): 12.5 µg/mL; MIC (μg/mL) A. hydrophila (Aeromonas hydrophila; [4]): 25 µg/mL; MIC (μg/mL) C. diversus (Citrobacter diversus; [5]): 12.5 µg/mL; MIC (μg/mL) M. catarrhalis (Moraxella catarrhalis; [6]): 25 µg/mL; MIC (μg/mL) P. mirabilis (Proteus mirabilis; [7]): 12.5 µg/mL; MIC (μg/mL) P. vulgaris (Proteus vulgaris; [8]): 12.5 µg/mL; MIC (μg/mL) S. marcescens (Serratia marcescens; [9]): 12.5 µg/mL"
PRT1283 (NTDDCVDHACANGGVCVDGVGNYTCQCPLQYEGKACE; listed as Homo sapiens),12.5,–,–,–,–,–,–,–,–,–,–,50,12.5,50,12.5,12.5,50,12.5,25,12.5,MIC against S. marcescens (Serratia marcescens; [9]): 25 µg/mL
PRT807 (YGDGCQLPCTCQNGADCHSITGGCTCAPGFMGEVCA; listed as Homo sapiens),25,–,–,–,–,–,–,–,–,–,–,–,–,–,–,–,–,–,–,–,"MIC (μg/mL) E. coli BL21 (E. coli BL21; 10 h cultivation at 37° C.): 50 µg/mL; MIC (μg/mL) P. aeruginosa (Pseudomonas aeruginosa; P. aeruginosa, 10 h cultivation at 37° C.): 25 µg/mL; MIC (μg/mL) K. pneumonia (Klebsiella pneumonia; K. pneumonia, 10 h cultivation at 37° C.): 12.5 µg/mL; MIC (μg/mL) E. cloacae (Enterobacter cloacae; E. cloacae, 10 h cultivation at 37° C.): 50 µg/mL; MIC (μg/mL) A. hydrophila (Aeromonas hydrophila; A. hydrophila, 10 h cultivation at 37° C.): 12.5 µg/mL; MIC (μg/mL) C. diversus (Citrobacter diversus; C. diversus, 10 h cultivation at 37° C.): 25 µg/mL; MIC (μg/mL) M. catarrhalis (Moraxella catarrhalis; M. catarrhalis, 10 h cultivation at 37° C.): 50 µg/mL; MIC (μg/mL) P. mirabilis (Proteus mirabilis; P. mirabilis, 10 h cultivation at 37° C.): 12.5 µg/mL; MIC (μg/mL) P. vulgaris (Proteus vulgaris; P. vulgaris, 10 h cultivation at 37° C.): 50 µg/mL; MIC (μg/mL) S. marcescens (Serratia marcescens; S. marcescens, 10 h cultivation at 37° C.): 12.5 µg/mL"
PRT602 (CKCHPQGSVGSSCSRLGGQCQCKPLVVGRCCDRCSTGSYDLGHHGCHP; listed as Homo sapiens),50,12.5,50,12.5,50,12.5,50,12.5,50,25,12.5,–,–,–,–,–,–,–,–,–,–
PRT1270 (DVDECSLDRTCDHSCINHPGTFACACNRGYTLYGFTHCG; listed as Homo sapiens),50,–,–,–,–,–,–,–,–,–,–,12.5,50,12.5,50,25,12.5,25,50,25,MIC against S. marcescens (Serratia marcescens; [9]): 12.5 µg/mL
